Measured values published in patent EP4671239A1, “ARYL SUBSTITUENT-CONTAINING DEGRADATION AGENT FOR CDK12/13, PREPARATION METHOD THEREFOR, AND PHARMACEUTICAL COMPOSITION AND USE THEREOF” (Shanghai Institute of Organic Chemistry, Chinese Academy of …, priority 2023, dated 2024).
Where two headings read alike, the source gives them in different places.

How the values were obtained:
CDK12 and CDK13 proteins [1] = assay: Degradation activity on CDK12/13 in 22RV1 cells (Western Blot); type: cell-based; details: 22RV1 cells
Protocol: Experimental methods: The cell line, 22RV1 cell line was purchased from the American Type Culture Collection (ATCC). Conventional Western Blot was used for detection as follows: 22RV1 cells were seeded in a certain number in a 12-well plate, and cultured overnight in an incubator in an adherent manner. […] The cells were lysed with a lysis buffer, and samples were collected. Then, an appropriate amount of the samples was taken for SDS-PAGE electrophoresis. After electrophoresis, the proteins were transferred to nitrocellulose membranes using a semi-dry electro-transfer system. The nitrocellulose membrane was placed in a blocking solution (5% skim milk powder diluted in TBS containing 0.1% Tween 20) and blocked at room temperature for 2 h. The membranes were then placed in a primary antibody solution (1: 1000 diluted in TBS containing 0.1% Tween 20), respectively, and incubated at 4°C overnight. The cells were washed three times with TBS containing 0.1% Tween 20, each time for 15 min. The membrane was placed in a secondary antibody solution (horseradish peroxidase-labeled goat anti-rabbit IgG, diluted at 1:1000 in TBS containing 0.1% Tween 20) and reacted at room temperature for 1 h. After washing the membrane three times as above, the membrane was developed with ECL plus reagent and photographed using Amersham Imager 600 system.

[2] = system: phosphorylation of serine at position 2 (phoSer2) of the C-terminal domain of RNA polymeraseII (RNA Pol II); assay: Phosphorylation of Ser2 of the RNA Pol II C-terminal domain in 22RV1 cells (Western Blot); type: cell-based; details: different concentrations (FIG. 4B)
Protocol: Experimental methods: The cell line, 22RV1 cell line was purchased from the American Type Culture Collection (ATCC). Conventional Western Blot was used for detection as follows: 22RV1 cells were seeded in a certain number in a 12-well plate, and cultured overnight in an incubator in an adherent manner. Then, a certain concentration of compounds was added to act for 6 hours. The cells were lysed with a lysis buffer, and samples were collected. Then, an appropriate amount of the samples was taken for SDS-PAGE electrophoresis. After electrophoresis, the proteins were transferred to nitrocellulose membranes using a semi-dry electro-transfer system. The nitrocellulose membrane was placed in a blocking solution (5% skim milk powder diluted in TBS containing 0.1% Tween 20) and blocked at room temperature for 2 h. The membranes were then placed in a primary antibody solution (1: 1000 diluted in TBS containing 0.1% Tween 20), respectively, and incubated at 4°C overnight. The cells were washed three times with TBS containing 0.1% Tween 20, each time for 15 min. The membrane was placed in a secondary antibody solution (horseradish peroxidase-labeled goat anti-rabbit IgG, diluted at 1:1000 in TBS containing 0.1% Tween 20) and reacted at room temperature for 1 h. […]

[3] = Pharmacokinetics and bioavailability test in rats (Example 60); type: in vivo; details: SD rats
Protocol: (§1) Pharmacokinetics and bioavailability tests in rats. SD rats were given a single oral (10 mg/kg), intravenous (2.5 mg/kg) and intraperitoneal (10 mg/kg) dose, followed by animal blood sample collection at appropriate time points. Heparin was added for anticoagulation, and the samples were centrifuged at 8000 rpm for 6 min. The supernatant was collected and stored at -20°C for HPLC-MS analysis. The blood samples underwent protein precipitation with acetonitrile at 12 000 rpm * 10 min, and the supernatant was used for HPCL-MS analysis. The data underwent parameter fitting with DAS2.0, to obtain compartmental model and non-compartmental model parameters, respectively. The oral bioavailability of the compounds was calculated based on the area under the plasma concentration-time curve (AUC) data. […] Table 2. Pharmacokinetic experimental results of compounds YJZ9069 and YJZ1102

[4] = Pharmacokinetics and bioavailability test in rats (Example 57); type: in vivo; details: SD rats; for AUC(0-inf) / Tmax / MRT last / MRT inf: rat, plasma; for MRT last: read-out: MRT(0-t); for MRT inf: read-out: MRT(0-∞)
Protocol: as §1, with “Table 1.” for “Table 2.”, “of compound zlc-4-93” for “of compounds YJZ9069 and YJZ1102”

CDK12 and CDK13 proteins [5] = assay: Degradation activity on CDK12/13 in MDA-MB-231 cells (Western Blot); type: cell-based; details: WB (FIG. 2A)
[6] = system: triple negative breast cancer cells MDA-MB-231; assay: Proliferation-inhibiting activity on MDA-MB-231 cells (Cell Counting Kit-8); type: cell-based; details: Homo sapiens, 120 h; MDA-MB-231 cell line, 5 days, cck-8 (FIG. 3)
Protocol: The cell proliferation-inhibiting activity of the compounds was determined using Cell Counting Kit-8 Cell Viability Assay (Selleck.cn). The cells were seeded into a 384-well plate (CORNING® PS 3701) containing the corresponding culture medium and incubated in an incubator at 37°C with 5% CO2. After overnight incubation, a high-concentration stock solution of each compound to be tested was prepared; the compound was added to the 384-well plate according to a concentration gradient using an Echo® 650 Liquid Handler (LABCYTE®). After administration, the cell plate was placed in an incubator at 37°C with 5% CO2 and incubated for 5 days. Then, 5 µL of cck-8 reagent was added to each well of the 384-well plate using MULTIDROP® (Thermo Scientific™), and the plate was returned to the incubator for incubation for 1.5-2 h. After incubation, the plate was removed and centrifuged to remove bubbles. The absorbance of each well at 450 nm and 650 nm was obtained using EnVision® (PerkinElmer®). GraphPad Prism software (GraphPad Software Inc.) was used to process and analyze the data.

CDK12 and CDK13 proteins [7] = assay: Degradation activity on CDK12/13 in MDA-MB-231 cells (Western Blot); type: cell-based; details: for degradation of CDK12 and CDK13 protein levels in cells: 0.1µM or 0.3µM, 15 h, WB (FIG. 1); for degradation of CDK12 and CDK13 proteins: 1 µM, 15 hours
Protocol: (§2) Experimental methods: The cell line MDA-MB-231 was purchased from the American Type Culture Collection (ATCC). Conventional Western Blot was used for detection, as follows: MDA-MB-231 cells were seeded at a density of 2 x 10^5/mL in a 12-well plate, with 1 mL per well, and cultured overnight in an incubator in an adherent manner. Then, a certain concentration of compounds was added to act for 15 h. The cells were lysed with a lysis buffer, and protein samples were collected. An appropriate amount of the sample was taken for SDS-PAGE electrophoresis. After electrophoresis, the protein was transferred to a polyvinylidene fluoride (PVDF) membrane using a wet electro-transfer system. The PVDF membrane after electro-transfer was cut into several required strips, which were then placed in a blocking solution (5% skim milk powder diluted in TBS containing 0.1% Tween 20) and blocked at room temperature for 1.5 h. A primary antibody solution was prepared by diluting a primary antibody against the corresponding target protein in TBS containing 0.1% Tween 20 according to the dilution requirements of different antibodies, such as 1:1000 (CST), 1:3000 (Proteintech, Bethyl), and 1:200 (Santacruz). The blocked membrane was placed in the corresponding primary antibody solution and incubated at 4°C for 12-14 h. Then, the cells were washed three times with TBS containing 0.1% Tween 20, each time for 5 min. After washing, the membrane was placed in a secondary antibody solution (horseradish peroxidase-labeled goat anti-rabbit IgG, diluted at 1:2000 in TBS containing 0.1% Tween 20) and reacted at room temperature for 2 h. After washing the membrane three times as above, the membrane was developed with StarSignal plus reagent (GenStar®) and Omni-ECL reagent (Yazyme®), and photographed with Amersham Imager 800 system.

Cyclin K = assay: Degradation of partner protein Cyclin K in MDA-MB-231 cells (Western Blot); type: cell-based; details: for time dependence of degradation of Cyclin K: WB (FIG. 2); for degradation of Cyclin K protein: after 15 hours
Protocol: as §2

O=C1CCC(N2C(=O)c3cccc(OCC(=O)N4CCN(c5ccc(N(C(=O)NCc6ccccc6)[C@H]6CC[C@H](Nc7ncc8ccccc8n7)CC6)cc5)CC4)c3C2=O)C(=O)N1 (stereo partly drawn) [YJZ9069]
degradation of CDK12 and CDK13 proteins (CDK12 and CDK13 proteins [1]; 100 nM, 6 h (FIG. 5)): almost completely degrade
degradation of CDK12 and CDK13 proteins (CDK12 and CDK13 proteins [1]; 0.5 µM, 15 hours): almost completely degraded
degradation of CDK12 and CDK13 protein levels in cells (CDK12 and CDK13 proteins [1]; 500 nM, 6 hours, WB (FIG. 4)): effectively degrade
dose dependence of degradation of CDK12 and CDK13 proteins (CDK12 and CDK13 proteins [1]; different concentrations, 6 h (FIG. 4B, FIG. 5)): dose-dependent manner
phosphorylation of serine at position 2 (phoSer2) of RNA Pol II CTD [2]: inhibited in a dose-dependent manner
F ([3]; PO 10 mg/kg, bioavailability calculated from AUC): 5.04%
Cmax ([3]; rat, in vivo, IV 2.5 mg/kg): 3510 ng/mL
Tmax ([3]; rat, in vivo, IV 2.5 mg/kg): 0.08 h
clearance ([3]; rat, in vivo, IV 2.5 mg/kg): 14.1 mL/min/kg
half-life ([3]; rat, in vivo, IV 2.5 mg/kg): 4.39 h
Cmax ([3]; rat, in vivo, PO 10 mg/kg): 121 ng/mL
Tmax ([3]; rat, in vivo, PO 10 mg/kg): 4 h

N#Cc1ccc(N[C@H]2CC[C@H](N(C(=O)NCc3ccccc3)c3ccc(N4CCN(C5CCN(c6cc7c(cc6F)C(=O)N(C6CCC(=O)NC6=O)C7=O)CC5)CC4)cc3)CC2)nc1 (stereo partly drawn) [ZLC4-91]
F ([4]; Oral 10 mg/kg, bioavailability calculated from AUC): 46.80%
oral pharmacokinetic properties ([4]; summary in words of Table 1): excellent
AUC(0-inf) ([4]; iv, i.v. 2.5 mg/kg): 6880 ng·h/mL
Tmax ([4]; iv, i.v. 2.5 mg/kg): 0.08 h
MRT last ([4]; iv, i.v. 2.5 mg/kg): 2.2 h
MRT inf ([4]; iv, i.v. 2.5 mg/kg): 2.32 h
AUC(0-inf) ([4]; Oral 10 mg/kg): 12800 ng·h/mL
Tmax ([4]; Oral 10 mg/kg): 4.67 h
MRT last ([4]; Oral 10 mg/kg): 6.09 h
MRT inf ([4]; Oral 10 mg/kg): 6.21 h
time dependence of degradation of CDK12 and CDK13 proteins (CDK12 and CDK13 proteins [5]): time-dependent manner
IC50 [6]: 622 nM
degradation of CDK12 and CDK13 protein levels in cells (CDK12 and CDK13 proteins [7]): effectively degrade
degradation of CDK12 and CDK13 proteins (CDK12 and CDK13 proteins [7]): almost completely degraded
time dependence of degradation of Cyclin K (Cyclin K): time-dependent degradation effect
degradation of Cyclin K protein (Cyclin K): almost completely degraded

N#Cc1ccc(N[C@H]2CC[C@H](N(C(=O)NCc3ccccc3)c3ccc(N4CCC(N5CCN(c6ccc7c(c6)C(=O)N(C6CCC(=O)NC6=O)C7=O)CC5)CC4)cc3)CC2)nc1 (stereo partly drawn) [ZLC5-11]
time dependence of degradation of CDK12 and CDK13 proteins (CDK12 and CDK13 proteins [5]): time-dependent manner
degradation of CDK12 and CDK13 protein levels in cells (CDK12 and CDK13 proteins [7]): effectively degrade
degradation of CDK12 and CDK13 proteins (CDK12 and CDK13 proteins [7]): almost completely degraded
time dependence of degradation of Cyclin K (Cyclin K): time-dependent degradation effect
degradation of Cyclin K protein (Cyclin K): almost completely degraded
